Where two headings read alike, the source gives them in different places.
What was measured:
NIH3T3 cells = assay: MTT assay, cytotoxicity in normal cells; format: cell-based; settings: for cytotoxicity: normal cells (NIH3T3), result in words
Description: (§1) NIH3T3 cells, as a mouse fibroblast cell line, and B16F10 cells, as a mouse melanoma cell line, were dispensed into a 96 well plate at 2×10^3 cells/well, and cultured in DMEM supplemented with 10% fetal bovine serum (FBS) at 5% CO2 and 37°C. Compounds (pterosin A, pterosin B, pterosin C, pterosin D, pterosin P, pterosin Z, pteroside A, pteroside B and pteroside Z) were treated at different concentrations and then cultured for 48 hours. Thereafter, MTT solution (5 mg/ml) was added to each well at a concentration of […] and incubated at 37°C for 4 hours. […] After incubation for 10 minutes, optical density was measured at 550 nm by using a Microplate Reader (Molecular Devices, Spectra Max, USA). An optical density is an index representing the number of surviving cells and is calculated by the formula below, and reproducibility was confirmed through three experiments. Cell proliferation rate (%) = OD550 (sample)/OD550; (control) × 100 [formula]
(§2) As described in the experimental method, mouse embryo fibroblast cell-line (NIH3T3) as a normal cell and Mouse melanoma cell-line (B16F10) as a cancer cell were cultured in a 96-well plate, and each compound was added to the cell medium at each concentration and cultured for 48 hours, MTT was then administered, and the optical density was measured at 550 nm by using a microplate reader. The optical density is an index representing the number of surviving cells and calculated by the following formula, and reproducibility was confirmed through three experiments. Cell proliferation rate (%) = OD550 (sample)/OD550; (control) × 100 [formula]
(§3) Then, the LD50 (Lethal Dose 50) value was calculated based on the change in cell proliferation rate.

B16F10 cells = assay: MTT assay, cytotoxicity in cancer cells; format: cell-based; settings: for cytotoxicity: cancer cells (B16F10), result in words
Description: as §1, §2, §3

CREB [1] = assay: Western blot for CREB phosphorylation level in neurons; format: cell-based; settings: for CREB phosphorylation: 10 µM, FIG. 2, against positive control amx; for phosphorylation of CREB: FIG. 8, compared with pterosin B
Description: (§4) Western blot analysis was performed by using the following method. Cells were lysed in RIPA buffer (20 mM Tris-Cl pH 7.4, 1 mM EDTA, 150 mM NaCl, 1% Triton X-100, 1 mM EGTA, 1 µM Na3VO4, 2.5 mM sodium pyrophosphate, 1 µM phenylmethylsulfonyl fluoride, 1 ug/ml leupeptin). The protein concentration was calculated by using BCA Protein Assay Reagent (BioRad, Hercules, CA, USA). Protein samples were separated by SDS-PAGE and transferred to polyvinylidene difluoride (PVDF) membranes (Millipore, Bedford, MA, USA). Membranes were incubated overnight at 4 °C with primary antibodies followed by HRP-conjugated goat anti-rabbit IgG (1:5,000; Pierce; Carlsbad, CA, USA). The used primary antibodies were actin (sigma; 1:1000), p-CREB (Cell signaling; 1:1000), tubulin (Cell signaling; 1:1000), p-PKA (Cell signaling; 1:1000), p -trk (Cell signaling; 1:1000) and BDNF (Abcam; 1:1000). All membranes were visualized by using a UVP Autochemi Darkroom Imaging System (Utra-Violet Products Ltd. UK) and Immobilon Crescendo Western HRP Substrate or Luminata Forte Western HRP Substrate (Millipore, USA).

CREB [2] = assay: Western blot for CREB phosphorylation level in astrocytes; format: cell-based; settings: FIG. 2
Description: as §4

hippocampal slice = assay: Electrophysiology in hippocampal slices (fEPSP, LTP); parameters: species or system mouse; settings: theta-burst stimulation, FIG. 10
Description: • 1. The brain of a 4-month-old mouse was placed on an ice-cold dissection buffer, and a 300 µm-thick sagittal hippocampal slice was prepared by using a vibratome (dissection buffer: contents in mM: […], 25 NaHCO3, 5 KCl, 1.25 NaH2PO4, 0.5 CaCl2, 3.5 MgSO4, 10 D-glucose, 1.25 L-ascorbic acid and 2 Na-pyruvate bubbled with 95% O2/5% CO2). • 2. Slices were recovered at 32°C for 1 hour in normal ACSF (ACSF: mM: 125 NaCl, 2.5 KCl, 1.25 NaH2PO4, 25 NaHCO3, 10 glucose, 2.5 CaCl2 and 1.3 MgCl2 oxygen in 95% O2/5% CO2). • 3. During recording, the slices were moved to a chamber submerged in ACSF at 28°C, and ACSF saturated with 95% O2/5% CO2 was continuously perfused (2ml/min). A Micropipette for stimulation and recording was fabricated by using boron acid glass capillaries (Harvard Instruments) and a micropipette electrode puller. • 4. For input/output, paired-pulse ratio, and long-term potentiation (LTP) experiments, an ACSF-filled pipette (resistance: […]) was used to test the hippocampus. A field excitatory post-synaptic potential (fEPSP) was measured in the CA1 region. The fEPSP signal was amplified by using Multiclamp 700B (Molecular Devices) and digitized by using Digidata 1440A (Molecular Devices). […] The pair-pulse ratio was measured after giving the pair stimulation at intervals of 25, 50, 75, 100, 200, and 300 ms . • 6. […]

nerve cells (Neuron) = assay: Neuron proliferation, differentiation and regeneration promoting ability (microscopy); format: cell-based; settings: against control group, FIG. 11
Description: The abilities of pterosin compounds to promote nerve cell proliferation, differentiation and regeneration were evaluated.

[3] = Blood-brain barrier permeability (Stirwell PAMPA sandwich, BBB-1-lipid); settings: for Papp at 4 h: PAMPA, pH 7.4, Pe Average
Description: Progesterone was used as a positive control and ranitidine was used as a negative control: • (1) A donor buffer at pH 7.4 was dispensed to a deep well plate and mixed with a test substance. • (2) The donor buffer was dispensed into a U.V plate by 150ul per well, and the optical density was measured: blank value. • (3) The mixture was dispensed in the deep well plate into the U.V plate by 150ul per well, and then the optical density was measured: blank value. • (4) 200ul of the mixture in step 1) was dispensed into the donor plate of the Stirwell PAMPA sandwich. • (5) The membrane of the acceptor plate of the Stirwell PAMPA sandwich was coated with 5 ul of BBB-1-lipid. • (6) A brain sink buffer was dispensed into each well on the acceptor plate by 200 ul. • (7) The acceptor plate and donor plate were combined and incubated at 25°C for 4 hours. • (8) After 4 hours of incubation, the acceptor plate and donor plate were separated, and 150 µl each was transferred to a UV plate, and the optical density was measured.

[4] = Cancer cell B16F10, cultured 48 hours, MTT, OD 550 nm
[5] = Normal cell NIH3T3, cultured 48 hours, MTT, OD 550 nm
[6] = pH 7.4, 25°C, 4 hours, controls 50 µM, Pterosin D 12.5 µM

## Cc1cc2c(c(C)c1CCO)C(=O)[C@H](C)C2 [Compound 2, (2R)-pterosin B]
NIH3T3 cells
  cytotoxicity: little cytotoxicity
B16F10 cells; [4]
  LD50: >5,000 µM
B16F10 cells
  cytotoxicity: little cytotoxicity
CREB [1]
  CREB phosphorylation: did not increase CREB phosphorylation at all
CREB [2]
  CREB phosphorylation: no effect

## Cc1cc2c(c(C)c1CCO)C(=O)C(C)(C)C2 [Compound 3, pterosin Z]
NIH3T3 cells
  cytotoxicity: weak cytotoxicity
B16F10 cells
  cytotoxicity: weak cytotoxicity
CREB [1]
  CREB phosphorylation: did not increase CREB phosphorylation at all
CREB [2]
  CREB phosphorylation: no effect

## Cc1c(CCO)c(CO)cc2c1C(=O)[C@@H](C)C2 [Compound 4, (2S)-pterosin P]
NIH3T3 cells; [5]
  LD50: >5,000 µM
NIH3T3 cells
  cytotoxicity: little cytotoxicity
B16F10 cells; [4]
  LD50: >5,000 µM
B16F10 cells
  cytotoxicity: little cytotoxicity
CREB [1]
  CREB phosphorylation: did not increase CREB phosphorylation at all
CREB [2]
  CREB phosphorylation: no effect

## Cc1cc2c(c(C)c1CCO)C(=O)C(C)(C)[C@@H]2O [Compound 5, (3R)-pterosin D]
NIH3T3 cells; [5]
  LD50: >5,000 µM
NIH3T3 cells
  cytotoxicity: little cytotoxicity
B16F10 cells; [4]
  LD50: >5,000 µM
B16F10 cells
  cytotoxicity: little cytotoxicity
CREB [1]
  CREB phosphorylation: significantly increased
  phosphorylation of CREB: statistically significantly increased
CREB [2]
  CREB phosphorylation: no effect
Hippocampal slice
  hippocampus mossy fiber-CA1 LTP: particularly strong
Nerve cells (Neuron)
  length of nerve cells: significantly longer
[3]; [6]
  Papp at 4 h: 20.9 ×10⁻⁶ cm/s
  Pe 1st: 19.74 10^-6cm/sec
  Pe 2nd: 20.20 10^-6cm/sec
  Pe 3rd: 22.73 10^-6cm/sec
[3]; pH 7.4, controls 50 µM, Pterosin D 12.5 µM
  BCS code, CNS +/- (spreadability to CNS): CNS+ (>10)

## Cc1cc2c(c(C)c1CCO)C(=O)[C@](C)(CO)C2 [Compound 6, (2S)-pterosin A]
NIH3T3 cells; [5]
  LD50: >5,000 µM
B16F10 cells
  cytotoxicity: weak cytotoxicity only in cancer cells
CREB [1]
  CREB phosphorylation: significantly increased
  phosphorylation of CREB: statistically significantly increased
CREB [2]
  CREB phosphorylation: no effect

## Cc1cc2c(c(C)c1CCO)C(=O)[C@H](C)[C@H]2O [Compound 7, (2R,3R)-pterosin C]
NIH3T3 cells; [5]
  LD50: >5,000 µM
B16F10 cells; [4]
  LD50: >5,000 µM

## Cc1cc2c(c(C)c1CCO)C(=O)[C@@H](C)[C@H]2O [Compound 8, (2S,3R)-pterosin C]
NIH3T3 cells; [5]
  LD50: >5,000 µM
B16F10 cells; [4]
  LD50: >5,000 µM

## Cc1cc2c(c(C)c1CCO[C@@H]1O[C@H](CO)[C@@H](O)[C@H](O)[C@H]1O)C(=O)[C@H](C)C2 [Compound 9, (2R)-pteroside B]
NIH3T3 cells
  LD50: >5,000 µM
B16F10 cells
  LD50: >5,000 µM

## Cc1cc2c(c(C)c1CCO[C@@H]1O[C@H](CO)[C@@H](O)[C@H](O)[C@H]1O)C(=O)C(C)(C)C2 [Compound 10, pteroside Z]
NIH3T3 cells
  LD50: >5,000 µM
B16F10 cells
  LD50: >5,000 µM

## Cc1cc2c(c(C)c1CCO[C@@H]1O[C@H](CO)[C@@H](O)[C@H](O)[C@H]1O)C(=O)[C@](C)(CO)C2 [Compound 11, (2S)-pteroside A]
NIH3T3 cells
  LD50: >5,000 µM
B16F10 cells
  LD50: >5,000 µM

## CC(=O)[C@H]1CC[C@H]2[C@@H]3CCC4=CC(=O)CC[C@]4(C)[C@H]3CC[C@]12C [Progesterone, reference compound]
[3]
  Papp at 4 h: 28.8 ×10⁻⁶ cm/s

## Cc1cc2c(c(C)c1CCO)C(=O)[C@@H](C)[C@@H]2O [pterosin C]
CREB [1]
  CREB phosphorylation: significantly increased
  phosphorylation of CREB: statistically significantly increased
CREB [2]
  CREB phosphorylation: no effect
Hippocampal slice
  hippocampus mossy fiber-CA1 LTP: particularly strong

Reference: patent publication EP4260850A1, “PHARMACEUTICAL COMPOSITION COMPRISING PTEROSIN COMPOUND AND DERIVATIVE THEREOF AS ACTIVE INGREDIENT FOR PREVENTION OR TREATMENT OF PKA-RELATED DISEASE” (GHPharm Co., Ltd., priority 2020, dated 2022)
